The target in series [1] is T1, human mGluR5d (Homo sapiens, UniProt P41594).
T1 construct: expressed in transfected cells; The cells are kept under hygromycin B and Zeocin selection; The separate IP3 assay names GHEK cells stably expressing human mGluR5d
In words: FLIPR assay, mobilization of intracellular calcium in cells expressing human mGluR5d. It counts as cell-based. Conditions: antagonism of agonist response, read-out: FLIPR hmGluR5d. The text has this:
Functional Assessment of mGluR5 Antagonism in Cell Lines Expressing mGluR5D
The properties of the compounds of the invention can be analyzed using standard assays for pharmacological activity. Examples of glutamate receptor assays are well known in the art as described in for example Aramori et al., Neuron 8:757 (1992), Tanabe et al. Neuron 8:169 (1992), Miller et al., J. Neuroscience 15: 6103 (1995), Balazs, et al., J. Neurochemistry 69:151 (1997). The methodology described in these publications is incorporated herein by reference. Conveniently, the compounds of the invention can be studied by means of an assay (FLIPR) that measures the mobilization of intracellular calcium, [Ca^2+]i in cells expressing mGluR5 or another assay (IP3) that measures inositol phosphate turnover.
Cells expressing human mGluR5d as described in WO97/05252 cultured in a mixture of high glucose DMEM with Glutamax (31966-021)(500 mL), 10% dialyzed fetal bovine serum (Hyclone #SH30079.03) (56 mL), 200 μg/mL Hygromycin B (Invitrogen 45-0430, 50 mg/mL) (2.2 mL), 200 μg/mL Zeocin (Invitrogen #R250-01; 100 mg/mL) (1.1 mL) are seeded at a density of 100,000 cells per well on collagen coated clear bottom 96-well plates with black sides and cells were allowed to adhere over night before experiments. All assays are done in a buffer containing 146 mM NaCl, 5 mM KCl, 1 mM MgCl2, 1 mM CaCl2, 20 mM HEPES, 1 mg/mL glucose and 1 mg/mL BSA Fraction IV (pH 7.4). Cell cultures in the 96-well plates are loaded for 60 minutes in the above mentioned buffer containing 6 μM of the acetoxymethyl ester form of the fluorescent calcium indicator fluo-3 (Molecular Probes, Eugene, Oreg.) in 0.025% pluronic acid (a proprietary, non-ionic surfactant polyol—CAS Number 9003-11-6). Following the loading period the fluo-3 buffer is removed and replaced with fresh assay buffer. FLIPR experiments are done using a laser setting of 0.700 W and a 0.4 second CCD camera shutter speed with excitation and emission wavelengths of 488 nm and 562 nm, respectively. Each experiment is initiated with 160 μl of buffer present in each well of the cell plate. A 40 μl addition from the antagonist plate was followed by a 50 μL addition from the agonist plate. A 30 minutes, in dark at 25° C., interval separates the antagonist and agonist additions. The fluorescence signal is sampled 50 times at 1-second intervals followed by 3 samples at 5-second intervals immediately after each of the two additions. Responses are measured as the difference between the peak heights of the response to agonist, less the background fluorescence within the sample period. IC50 determinations are made using a […] least squares fitting program.

A short description of series [2]: Determination of brain to plasma ratio in rat. The format is in vivo. Particulars: brain and plasma, female Sprague Dawley rats, read-out: Brain/Plasma Ratio of compound in Rat. As for the experimental part: Brain to plasma ratios are estimated in female Sprague Dawley rats. The compound is dissolved in water or another appropriate vehicle. For determination of brain to plasma ratio the compound is administrated as a subcutaneous, or an intravenous bolus injection, or an intravenous infusion, or an oral administration. At a predetermined time point after the administration a blood sample is taken with cardiac puncture. The rat is terminated by cutting the heart open, and the brain is immediately retained. The blood samples are collected in heparinized tubes and centrifuged within 30 minutes, in order to separate the plasma from the blood cells. The plasma is transferred to 96-well plates and stored at −20° C. until analysis. The brains are divided in half, and each half is placed in a pre-tarred tube and stored at −20° C. until analysis. Prior to the analysis, the brain samples are thawed and 3 mL/g brain tissue of distilled water is added to the tubes. The brain samples are sonicated in an ice bath until the samples are homogenized. Both brain and plasma samples are precipitated with acetonitrile. After centrifugation, the supernatant is diluted with 0.2% formic acid. Analysis is performed on a short reversed-phase HPLC column with rapid gradient elution and MSMS detection using a triple quadrupole instrument with electrospray ionisation and Selected Reaction Monitoring (SRM) acquisition. Liquid-liquid extraction may be used as an alternative sample clean-up. The samples are extracted, by shaking, to an organic solvent after addition of a suitable buffer. An aliquot of the organic layer is transferred to a new vial and evaporated to dryness under a stream of nitrogen. After reconstitution of the residuals the samples are ready for injection onto the HPLC column.

Structures are written as SMILES. Some results are limits rather than exact numbers.

T1 sequence (P41594 21-942 isoform P41594-3 limits assumed): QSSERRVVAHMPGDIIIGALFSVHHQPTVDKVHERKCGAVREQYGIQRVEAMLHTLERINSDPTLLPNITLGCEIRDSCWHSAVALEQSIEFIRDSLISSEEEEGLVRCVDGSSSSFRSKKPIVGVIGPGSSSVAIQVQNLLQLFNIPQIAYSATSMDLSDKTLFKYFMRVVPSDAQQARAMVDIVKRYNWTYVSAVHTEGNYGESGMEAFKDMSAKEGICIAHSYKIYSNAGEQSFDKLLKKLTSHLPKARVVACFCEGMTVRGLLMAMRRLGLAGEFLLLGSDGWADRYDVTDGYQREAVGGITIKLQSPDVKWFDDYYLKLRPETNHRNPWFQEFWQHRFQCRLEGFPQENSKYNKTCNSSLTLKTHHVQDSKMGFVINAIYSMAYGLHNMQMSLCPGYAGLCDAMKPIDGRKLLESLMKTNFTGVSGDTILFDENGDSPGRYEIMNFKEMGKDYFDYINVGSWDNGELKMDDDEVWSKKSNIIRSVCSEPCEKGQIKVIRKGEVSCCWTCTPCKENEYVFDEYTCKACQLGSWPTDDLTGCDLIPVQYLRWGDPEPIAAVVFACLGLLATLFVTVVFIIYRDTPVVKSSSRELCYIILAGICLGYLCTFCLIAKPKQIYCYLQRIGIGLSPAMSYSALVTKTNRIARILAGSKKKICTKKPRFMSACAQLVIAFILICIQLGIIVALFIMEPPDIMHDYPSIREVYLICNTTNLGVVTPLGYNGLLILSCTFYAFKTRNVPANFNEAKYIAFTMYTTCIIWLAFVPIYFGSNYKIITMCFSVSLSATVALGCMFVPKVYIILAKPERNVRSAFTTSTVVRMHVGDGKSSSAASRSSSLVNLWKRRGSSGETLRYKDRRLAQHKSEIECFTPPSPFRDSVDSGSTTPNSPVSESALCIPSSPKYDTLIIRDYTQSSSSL

`Cc1cccc(-c2cc([C@H](C)N(C)c3nnc(-c4cn[nH]c(=O)c4)n3C)no2)c1` [Example 4.11, (−)-5-[4-Methyl-5-(methyl-{(1S)-1-[5-(3-methylphenyl)isoxazol-3-yl]ethyl}amino)-4H-1,2,4-triazol-3-yl]pyridazin-3(2H)-one]: the IC50 in series [1] is 43 nM. In series [2], the Kp was under 0.01.
